This note sets out measurements from article PMC6904270, “A High-Throughput Assay for Monitoring Ubiquitination in Real Time” (Frontiers in Chemistry, 2019).

By IC50 is commonly meant the midpoint of a concentration-inhibition curve. A low value points to greater potency in that assay.

The target in this assay is T1, E1 ubiquitin-activating enzyme (UBE1) (Homo sapiens, UniProt P22314).
T1 construct: gene UBA1
T1 sequence (P22314 2-1058): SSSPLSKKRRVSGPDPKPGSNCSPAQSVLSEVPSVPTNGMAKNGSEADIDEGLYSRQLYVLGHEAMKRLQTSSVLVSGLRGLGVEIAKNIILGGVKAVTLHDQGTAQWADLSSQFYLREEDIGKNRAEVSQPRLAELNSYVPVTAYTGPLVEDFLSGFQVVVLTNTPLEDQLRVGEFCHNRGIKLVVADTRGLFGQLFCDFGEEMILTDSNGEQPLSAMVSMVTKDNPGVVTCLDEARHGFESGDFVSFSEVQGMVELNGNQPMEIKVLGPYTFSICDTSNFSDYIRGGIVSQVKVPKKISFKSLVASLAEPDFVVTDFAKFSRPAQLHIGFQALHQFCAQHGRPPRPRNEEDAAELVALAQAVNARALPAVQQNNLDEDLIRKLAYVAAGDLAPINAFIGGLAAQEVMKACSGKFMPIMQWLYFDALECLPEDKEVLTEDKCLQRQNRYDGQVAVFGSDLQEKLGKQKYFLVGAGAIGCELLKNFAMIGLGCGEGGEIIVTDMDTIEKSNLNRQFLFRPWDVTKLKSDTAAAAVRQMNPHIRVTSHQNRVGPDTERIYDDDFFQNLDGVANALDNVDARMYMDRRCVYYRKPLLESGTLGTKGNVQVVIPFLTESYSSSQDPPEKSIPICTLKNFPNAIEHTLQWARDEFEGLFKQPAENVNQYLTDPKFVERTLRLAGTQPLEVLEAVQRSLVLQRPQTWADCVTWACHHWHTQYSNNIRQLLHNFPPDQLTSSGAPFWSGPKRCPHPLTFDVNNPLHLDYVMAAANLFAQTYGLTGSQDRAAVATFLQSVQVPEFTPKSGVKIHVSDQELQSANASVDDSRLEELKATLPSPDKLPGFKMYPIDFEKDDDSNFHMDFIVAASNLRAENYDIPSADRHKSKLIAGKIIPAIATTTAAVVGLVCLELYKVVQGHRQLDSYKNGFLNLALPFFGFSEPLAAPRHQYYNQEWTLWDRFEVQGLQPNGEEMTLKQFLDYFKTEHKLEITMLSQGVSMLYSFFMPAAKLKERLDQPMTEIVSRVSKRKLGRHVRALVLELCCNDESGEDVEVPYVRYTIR
Kind of assay: fluorescence polarization of E1~TAMRA-Ub complex formation with purified E1 (UbiReal), endpoint dose-response. The class given is biochemical.

With `CCOC(=O)c1ccc(N2NC(=O)C(=Cc3ccc([N+](=O)[O-])o3)C2=O)cc1` [PYR-41], the IC50 was found to be 9.15 µM.
